Target: GTPase KRas (Homo sapiens, UniProt P01116, C118A/G12C)
Assay: Biochemical Assay: The following assay conditions were employed: Coupled Nucleotide Exchange Assay: Purified GDP-bound KRAS protein (aa 1-169), containing both G12C and C118A amino acid substitutions and an N-terminal His-tag, was pre-incubated with a compound dose-response titration for 5 min in assay buffer (25 mM HEPES pH 7.4, 10 mM MgCl2, and 0.01% Triton X-100). Following compound pre-incubation, purified SOS protein (aa 564-1049) and GTP (Roche 10106399001) were added to the assay wells and incubated for an additional 30 min. To determine the extent of inhibition of SOS-mediated nucleotide exchange, purified GST-tagged cRAF (aa 1-149), nickel chelate AlphaLISA acceptor beads (PerkinElmer AL108R), and AlphaScreen glutathione donor beads (PerkinElmer 6765302) were added to the assay wells and incubated for 5 minutes. The assay plates were then read on a PerkinElmer EnVision Multilabel Reader, using AlphaScreen® technology, and data were analyzed using a 4-parameter logistic model to calculate IC50 values.

Chain of GTPase KRas (P01116 whole entry G12C/C118A, the tested form may be a part): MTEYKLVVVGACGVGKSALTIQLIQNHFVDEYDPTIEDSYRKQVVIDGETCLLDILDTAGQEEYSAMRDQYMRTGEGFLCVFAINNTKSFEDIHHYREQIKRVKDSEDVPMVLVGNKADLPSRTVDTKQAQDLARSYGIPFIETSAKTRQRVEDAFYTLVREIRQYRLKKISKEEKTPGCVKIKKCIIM

C=CC(=O)N1[C@H](C)CN(c2nc(=O)n(-c3c(C)ccnc3C(C)C)c3nc(-c4c(N)cccc4F)c(Cl)cc23)C[C@@H]1C (atropisomer, axis not shown)
IC50: 14 nM

— ChEMBL document CHEMBL5729068, “Inhibitors of KRAS G12C and methods of using the same” (2022)
